Among the data in ChEMBL document CHEMBL1127114, “Conformationally constrained analogues of diacylglycerol. 5. 2,5-Dideoxy-3-O-tetradecanoyl-D-galactono-1,4-lactone: A superior homologue of 3-O-tetradecanoyl-2-deoxy-L-ribonolactone with PK-C binding affinity” (Bioorg Med Chem Lett, 1993) are Ki values, retold here.

Experiment [1] concerns the target T1, Protein kinase C alpha type (Homo sapiens, UniProt P17252). Briefly: Inhibition of [3H]phorbol-12,13-dibutyrate binding to PK-C.
The target in experiment [2] is T1, Protein kinase C alpha type. Briefly: Inhibition of [20-3H]phorbol-12,13-dibutyrate(PDBU) binding to purified PK-C alpha.

As usually defined, the Ki is a measure of affinity in units of concentration, obtained from inhibition or displacement. Lower therefore signals higher affinity. As for `CCCCCCCCCCCCCC(=O)O[C@@H]1CC(=O)O[C@H]1CO`, the figures for the Ki in experiment [1] and in experiment [2] were 2.5 µM and 1.5 µM, respectively. In turn, `CCCCCCCCCCCCCC(=O)O[C@@H]1CC(=O)O[C@H]1CCO` returned a Ki in experiment [2] of 0.88 µM.
